{
  "source": "patent US8993622B2",
  "about": "“Antiviral compounds” (Eirium AB, priority 2010, dated 2015)",
  "key": {"Ad11p": {"system": "Ad11p", "experiment": "Quantitative real-time PCR of adenovirus DNA replication in A549 cells (Ad11p)", "format": "cell-based, human adenovirus", "description": "Approximately 1×10^5 A549 cells were seeded in 24-well plates (Nunc) on the day before infection. On the day of infection, the cells in one well were counted to establish the amount of virions to be added. The growth medium was removed and compound and virus were added simultaneously to the cells in 700 μl DMEM with 0.75 g/l NaHCO3, 20 mM HEPES, 1×PEST, and 1% FBS. Compounds were added in concentrations ranging from 0.5 μM to 15 μM. The final concentration of DMSO was less than 1% in all samples. One pg of Ad virions was added per cell. The plate was incubated at 37° C. in 5% CO2 and 24 h after infection the cells were harvested, washed once, and resuspended in PBS. DNA was prepared from the samples using the QIAamp DNA Blood Mini Kit (QIAGEN, Solna, Sweden) according to the manufacturer's instructions. The design of primers and probes for analysis of various Ad types representing different adenovirus species with quantitative PCR has been described previously (Allard et al. 2001. Rapid typing of human adenoviruses by a general PCR combined with restriction endonuclease analysis. Journal Clinical Microbiology 39:498-505). Briefly, quantitative real-time PCR was carried out using a degenerate primer pair, Kadgen1 (forward)—Kadgen 2 (reverse) (5′-CWT ACA TGC ACA TCK CSG G-3′—SEQ ID NO:1, and 5′-CRC GGG CRA AYT GCA CCA G-3′—SEQ ID NO:2, respectively); DNA technology A/S, Aarhus, Denmark). This primer pair is specific for the conserved region of the Ad hexon gene and can detect all human Ads. Different FAM-TAMRA probes were used to quantitate Ads from different species: AdB1B2 (5′-6-FAM-AGGATGCTTCGGAGTACCTGAGTCCGG-TAMRA-3′—SEQ ID NO:3) for Ad11p (11) and AdC (5′-6-FAM-AGGACGCCTCGGAGTACCTGAGCCCCG-TAMRA-3′—SEQ ID NO:4) for Ad 5 (all from Applied Biosystems, Cheshire, UK). For Ads from species A, D, E and F the probe AdDF (5′-6-FAM-CCGGGCTCAGGTACTCCGAGGCGTCCT-3′—SEQ ID NO:5) was used (Applied Biosystems). Standard curves ranging from 5 to 5×10^5 genome copies were generated by serial dilution of known amounts of full-length Ad5 or Ad11 DNA. The Ad5 DNA standard was used for the AdDF probe system. […] The program for the real-time PCR was: 2 min at 50° C. to activate UNG, followed by amplification and quantitation (10 min at 95° C. and 40 cycles of 15 sec at 95° C., 1 min at 60° C.). […] Real-time PCR was performed in an ABI PRISM 7700 Sequence Detector (Applied Biosystems) and analyzed with Sequence Detector v1.7a software."}, "Ad31 (A)": {"system": "Ad31 (A)", "experiment": "Quantitative real-time PCR of adenovirus DNA replication in A549 cells (Ad31)", "format": "cell-based", "details": "Human adenovirus sp., read-out: % inhibition of DNA replication (SD)", "description": "(§1) Approximately 1×10^5 A549 cells were seeded in 24-well plates (Nunc) on the day before infection. On the day of infection, the cells in one well were counted to establish the amount of virions to be added. The growth medium was removed and compound and virus were added simultaneously to the cells in 700 μl DMEM with 0.75 g/l NaHCO3, 20 mM HEPES, 1×PEST, and 1% FBS. Compounds were added in concentrations ranging from 0.5 μM to 15 μM. The final concentration of DMSO was less than 1% in all samples. One pg of Ad virions was added per cell. The plate was incubated at 37° C. in 5% CO2 and 24 h after infection the cells were harvested, washed once, and resuspended in PBS. […] The design of primers and probes for analysis of various Ad types representing different adenovirus species with quantitative PCR has been described previously (Allard et al. 2001. Rapid typing of human adenoviruses by a general PCR combined with restriction endonuclease analysis. Journal Clinical Microbiology 39:498-505). Briefly, quantitative real-time PCR was carried out using a degenerate primer pair, Kadgen1 (forward)—Kadgen 2 (reverse) (5′-CWT ACA TGC ACA TCK CSG G-3′—SEQ ID NO:1, and 5′-CRC GGG CRA AYT GCA CCA G-3′—SEQ ID NO:2, respectively); DNA technology A/S, Aarhus, Denmark). […] Real-time PCR was performed in an ABI PRISM 7700 Sequence Detector (Applied Biosystems) and analyzed with Sequence Detector v1.7a software."}, "Ad37 (D)": {"system": "Ad37 (D)", "experiment": "Quantitative real-time PCR of adenovirus DNA replication in A549 cells (Ad37)", "format": "cell-based", "details": "Human adenovirus sp., read-out: % inhibition of DNA replication (SD)", "description": "as §1"}, "Ad4 (E)": {"system": "Ad4 (E)", "experiment": "Quantitative real-time PCR of adenovirus DNA replication in A549 cells (Ad4)", "format": "cell-based", "details": "Human adenovirus sp., read-out: % inhibition of DNA replication (SD)", "description": "as §1"}, "Ad41 (F)": {"system": "Ad41 (F)", "experiment": "Quantitative real-time PCR of adenovirus DNA replication in A549 cells (Ad41)", "format": "cell-based", "details": "Human adenovirus sp., read-out: % inhibition of DNA replication (SD)", "description": "as §1"}, "Ad5 hexon protein": {"system": "Ad5 hexon protein", "experiment": "FACS analysis of Ad5 hexon protein expression in A549 cells", "format": "cell-based, human adenovirus", "details": "24 h", "description": "(§2) FIG. 4. A. Binding of ^35S-labelled Ad5 to A549 cells in the presence of A02. Error bars represent the standard deviation of the means from three independent duplicate experiments. B. Flowcytometry assay detecting Ad5 (grey bars) and Ad11 (checkered bars) hexon protein following 24 h incubation with virus and compound A02. Error bars represent the standard deviation of the means from two independent duplicate experiments.\n(§3) A binding assay using isotope-labeled virions was used to address whether the compound would prevent viral adhesion to host cells. At 15 μM, compound A02 has no effect on Ad5 binding to the surface of A549 cells (FIG. 4A). To further verify inhibition of viral replication, the effect on the expression of the most abundant viral structural protein (hexon) in A549 cells was studied by FACS analysis."}, "Ad11p hexon protein": {"system": "Ad11p hexon protein", "experiment": "FACS analysis of Ad11p hexon protein expression in A549 cells", "format": "cell-based, human adenovirus", "details": "24 h", "description": "as §2, §3"}, "HIV integrase": {"target": "HIV integrase (Human immunodeficiency virus type 1 group M subtype B, UniProt P04585)", "details": "US 2006/0035245; cited from earlier work"}},
  "note": "pIC50: −log10 of the molar value.",
  "data": [
    {"compound": "O=C(Nc1ccccc1C(=O)Nc1ccccc1C(=O)O)c1ccccc1", "note": "[Compound A02, 2-[[2-(Benzoylamino)benzoyl]amino]-benzoic acid]", "values": [
      {"measurement": "selectivity index (SI=CC50/IC50) for Ad11p", "setting": "Ad11p", "value": 68},
      {"measurement": "pIC50", "setting": "Ad11p; Human adenovirus sp., 24 h, read-out: IC50 for Ad11p replication (QPCR)", "value": 5.54},
      {"measurement": "inhibition at 5 µM", "setting": "Ad11p; Human adenovirus sp., Ad11p (B2), 5 μM, read-out: % inhibition of DNA replication (SD)", "value": 79, "unit": "%"},
      {"measurement": "inhibition at 15 µM", "setting": "Ad11p; Human adenovirus sp., Ad11p (B2), 15 μM, read-out: % inhibition of DNA replication (SD)", "value": 79, "unit": "%"},
      {"measurement": "inhibition at 5 µM", "setting": "Ad31 (A); 5 μM", "value": 86, "unit": "%"},
      {"measurement": "inhibition at 15 µM", "setting": "Ad31 (A); 15 μM", "value": 98, "unit": "%"},
      {"measurement": "inhibition at 5 µM", "setting": "Ad37 (D); 5 μM", "value": 86, "unit": "%"},
      {"measurement": "inhibition at 15 µM", "setting": "Ad37 (D); 15 μM", "value": 94, "unit": "%"},
      {"measurement": "inhibition at 5 µM", "setting": "Ad4 (E); 5 μM", "value": 85, "unit": "%"},
      {"measurement": "inhibition at 15 µM", "setting": "Ad4 (E); 15 μM", "value": 96, "unit": "%"},
      {"measurement": "inhibition at 5 µM", "setting": "Ad41 (F); 5 μM", "value": 80, "unit": "%"},
      {"measurement": "inhibition at 15 µM", "setting": "Ad41 (F); 15 μM", "value": 88, "unit": "%"},
      {"measurement": "expression of Ad5 hexon protein", "setting": "Ad5 hexon protein", "value": "inhibited by compound A02 in a dose-dependent manner"},
      {"measurement": "expression of Ad11p hexon protein", "setting": "Ad11p hexon protein", "value": "inhibited by compound A02 in a dose-dependent manner"},
      {"measurement": "inhibition of HIV integrase", "setting": "HIV integrase", "value": "failed to inhibit"}
    ]}
  ]
}
